“And” between values parts separate entries of the source, which are not always exact repeats. Equal entries are not always repeated. Where two headings read alike, the source gives them in different places.
How the values were obtained:
[1] = type: in vivo; details: for Mortality and Morbidity: No. of Incidence/No. of Animals: incidence of the observation 'No mortality/morbidity'
Excerpt: Clinical signs were observed after test item administration and all the other days throughout the study period for all the animals. The cage side observations included (but not limited to) changes in skin and fur, eyes and mucous membranes, as well as respiratory, circulatory, autonomic and central nervous system, somatomotor activity and behavior pattern.
Animals were weighed during randomization, at start of treatment and weekly thereafter, until the end of experimental period.
Raw Data were processed using Statistical Software Sigma Plot 14. The mean and Standard Deviation were calculated using the Software and all data were summarized in tabular form. All continuous data like the body weight was checked for their normality and for homogeneous data, ANOVA was used.

[2] = system: guinea pig peritoneal eosinophils; experiment: Chemotactic and chemokinetic activities to leukotriene B4 of peritoneal eosinophils after i.p. pretreatment (Boyden chamber); type: in vivo, Cavia porcellus (Guinea Pig); details: for chemokinetic (B) activity to leukotriene B4 (0.1 uM), individual animals / chemotactic (A) activity to leukotriene B4 (0.1 uM), individual animals: guinea pig peritoneal eosinophils; for inhibition of eosinophil chemotactic and chemokinetic activities: i.p. pretreatment, n=3 per dose
Method: The animals used in this example were from the species Cavia porcellus (Guinea Pig). A total of 21 male guinea pigs weighing between 200-250 g were selected. These animals were manually randomized into 7 groups i.e. G1 and G2 (OmeGo Salmon oil 30 and 300 mg/kg), G3 and G4 (SEACOD 30 and 300 mg/kg), G5 and G6 were positive control (Fevipiprant 5 and 20 mg/kg) and G7 was negative control (linoleic acid 300 mg/kg) wherein each group consisted of 3 animals.
Guinea pigs were sensitized to create mild eosinphilia by intraperitoneal injection of Polymyxin B (1 mg/animal) once a week for 6 weeks. Polymyxin B was given by dissolving it in 0.9% saline solution. Each animal was injected with 0.5 mL of 0.9% saline containing 1 mg of Polymyxin B. In week 6, in addition to the Polymyxin B, animals were injected with test items belonging to their specific group, as shown in Table 5 below.
Animals were treated with Polymyxin B through an intraperitoneal injection. Along with Polymyxin B even the test items were given through the intraperitoneal route. In the 6th week animals were anesthetized using isoflurane and the intraperitoneal fluid was collected by injecting 50 mL of saline in the peritoneum cavity. After massaging the abdomen for 15 seconds the fluid was drained and collected in the centrifuge tubes. Around 30-35 mL of fluid was collected from each animal. This fluid was centrifuged for 10 mins (400×g 4° C.) and was resuspended in FBS (Fetal bovine serum) medium. Following this step, the fluid was recentrifuged for 10 min (400×g 4° C.) and the cell pellet was analyzed for chemotactic and chemokinetic responses of eosinophils to leukotriene B4 and cell counts using a 96-well microchemotaxis test chamber.
Eosinophils were recovered at greater than 90% purity using a modified procedure reported by Fukusa et. al. (Increased numbers of hypodense eosinophils in the blood of patients with bronchial asthma. Am. Rev. Respir. Dis. 1985; 132:981-985).
The animals were treated with Polymyxin B saline solution once every week for continuously 5 weeks and in the 6th week along with the Polymyxin B test item was given as per the groups. Each animal received 1 mg of Polymyxin B.
The chemotactic and chemokinetic activities were measured by the Boyden chamber method using a 96-well microchamber and expressed as the number of eosinophils counted on the membrane filter under ×400 magnification (cells/five fields). The chemokinetic activity to leukotriene B4 was examined by placing the same concentration of leukotriene B4 (0.1 μM) in both compartments of the chamber. Viability of the eosinophils was determined by the Trypan blue dye exclusion test after incubation for 90 min. All samples were assayed in duplicate. Blood was also collected on the same day and plasma was separated and stored at −20° C. for follow-on anti-inflammatory biomarker assays.

[3] = 20 mg (i.p.), compared to control

SMILES	Mortality and Morbidity: Observation ([1]; 5 mg/kg bw)	Mortality and Morbidity: No. of Incidence/No. of Animals ([1]; 5 mg/kg bw)	Mortality and Morbidity: Observation ([1]; 20 mg/kg bw)	Mortality and Morbidity: No. of Incidence/No. of Animals ([1]; 20 mg/kg bw)	chemokinetic (B) activity to leukotriene B4 (0.1 uM), individual animals ([2]; 5 mg/kg bw i.p.)	chemotactic (A) activity to leukotriene B4 (0.1 uM), individual animals ([2]; 5 mg/kg bw i.p.)	Maximum inhibition for chemokinesis [2, 3] [%]	Maximum inhibition for chemotaxis [2, 3] [%]	chemokinetic (B) activity to leukotriene B4 (0.1 uM), individual animals ([2]; 20 mg/kg bw i.p.)	chemotactic (A) activity to leukotriene B4 (0.1 uM), individual animals ([2]; 20 mg/kg bw i.p.)	inhibition of eosinophil chemotactic and chemokinetic activities [2]	chemokinetic (B) activity to leukotriene B4 (0.1 uM), individual animals ([2]; 300 mg/kg bw i.p.)	chemotactic (A) activity to leukotriene B4 (0.1 uM), individual animals ([2]; 300 mg/kg bw i.p.)
Cc1c(CC(=O)O)c2cccnc2n1Cc1ccc(S(C)(=O)=O)cc1C(F)(F)F [Fevipiprant]	No mortality/morbidity	03/03	No mortality/morbidity	03/03	290 Cells/5 fields (2×) and 280 Cells/5 fields	425 Cells/5 fields and 390 Cells/5 fields and 420 Cells/5 fields	51.7	68.0	160 Cells/5 fields and 175 Cells/5 fields and 165 Cells/5 fields	320 Cells/5 fields and 325 Cells/5 fields and 330 Cells/5 fields	significantly inhibited	–	–
CCCCC/C=C\C/C=C\CCCCCCCC(=O)O [Linoleic acid]	–	–	–	–	–	–	–	–	–	–	did not inhibit	335 Cells/5 fields and 360 Cells/5 fields and 340 Cells/5 fields	770 Cells/5 fields and 790 Cells/5 fields and 760 Cells/5 fields

— patent publication US20240269196A1, “RESPIRATORY TREATMENTS USING SALMONID OIL COMPOSITIONS” (Hofseth Biocare ASA, priority 2020, published 2024)
